Reference: patent publication US6849639B2, “Integrin inhibitors and their methods of use” (Amgen Inc., priority 1999, dated 2005)
Where a name gives a salt, the structure may show the parent alone.

SMILES | melting point
CCCCNC(=S)Nc1cccc(N2CC(C(=O)NC(CC(=O)O)c3cccnc3)CC2=O)c1 (centres unmarked) (as salt: sodium) [Example 24, 3-{(1-(3-{((butylamino)thioxomethyl)amino}phenyl)-5-oxopyrrolidin-3-yl)carbonylamino}-3-(3-pyridyl)propanoic acid, sodium salt] | 235 °C (dec.)
CC(C)CCNC(=S)Nc1cccc(N2CC(C(=O)NC(CC(=O)O)c3cccnc3)CC2=O)c1 (centres unmarked) (as salt: sodium) [Example 23, 3-({1-(3-({((3-methylbutyl)amino)thiooxomethyl}amino)phenyl)-5-oxopyrroidin-3-yl}carbonylamino)-3-(3-pyridyl)propanoic acid, sodium salt] | 250 °C (dec.)
O=C(O)CC(NC(=O)C1CC(=O)N(c2cccc(NC(=S)NCc3ccco3)c2)C1)c1cccnc1 (centres unmarked) (as salt: sodium) [Example 22, 3-({1-(3-({((2-furylmethyl)amino)thioxomethyl}amino)phenyl)-5-oxopyrrolidin-3-yl}carbonylamino)-3-(3-pyridyl)propanoic acid, sodium salt] | 240 °C (dec.)

Other lines, results leading:

melting point | SMILES
230 °C (dec.) | O=C(O)CC(NC(=O)C1CC(=O)N(c2cccc(NC(=S)NCc3ccc(F)cc3)c2)C1)c1cccnc1 (centres unmarked) (as salt: sodium) [Example 21, 3-((1-{3-(({((4-fluorophenyl)methyl)amino}thioxomethyl)amino)phenyl}-5-oxopyrrolidin-3-yl)carbonylamino)-3-(3-pyridyl)propanoic acid, sodium salt]
230 °C (dec.) | O=C(O)CC(NC(=O)C1CC(=O)N(c2cccc(NC(=S)NCc3ccccc3)c2)C1)c1cccnc1 (centres unmarked) (as salt: sodium) [Example 20, 3-({5-oxo-1-(3-({(benzylamino)thioxomethyl}amino)phenyl)pyrrolidin-3-yl}carbonylamino)-3-(3-pyridyl)propanoic acid, sodium salt]
